“Also recorded” adds a separate entry of the source. Like-named read-outs stand apart in the source and are kept apart here.
Assays:
[1] = Resazurin cell viability (cell toxicity) assay; details: African green monkey
rZIKV-ZsGreen [2] = experiment: microbe, parasite or virus in culture; assay type: cell-based, Zika virus; details: 24 h; for EC50 / EC90: Zika virus, Vero; for EC50: read-out: Inhibition Efficacy EC50; for EC90: read-out: Inhibition Efficacy EC90; for Inhibition Efficacy EC50 / Inhibition Efficacy EC90: rZIKV-ZsGreen, Vero B4 cells, inhibition of ZsGreen expression, highest concentration 100 µM
[3] = test system: two wt ZIKV lineages, Asian and African; assay type: cell-based, Zika virus; details: 2.5 µM
WNV = experiment: Focus-forming assay, WNV; assay type: cell-based, West Nile virus
[4] = test system: wt ZIKV African lineage (MR766, Uganda strain); experiment: Plaque inhibition assay, wt ZIKV African lineage; assay type: cell-based, Zika virus; details: 2.5 µM, Vero B4 cells, 4 days
ZIKV [5] = experiment: Focus-forming assay, ZIKV; assay type: cell-based, Zika virus; details: MOI 0.1, Vero B4, 24 hpi
rZIKV-ZsGreen [6] = experiment: Time of drug addition assay
TBEV = assay type: cell-based, tick-borne encephalitis virus; details: MOI 0.1, Vero B4, 24 hpi
YFV = assay type: cell-based, yellow fever virus; details: MOI 0.1, Vero B4, 48 hpi
DENV2 = experiment: Focus-forming assay, DENV2; assay type: cell-based, dengue virus type 2
JEV = experiment: Focus-forming assay, JEV; assay type: cell-based, Japanese encephalitis virus
[7] = test system: wt ZIKV Asian lineage (BeH819015, Brazil strain); experiment: Plaque inhibition assay, wt ZIKV Asian lineage; details: Vero B4 cells, 4 days
ZIKV [8] = details: ref 40 (Lei Cai et al.); read-out: EC50 against ZIKV; cited from earlier work
in vitro = details: African green monkey

Compound | viability at 24 h, 25 µM [1] | viability at 24 h, 50 µM [1] | viability at 24 h, 100 µM [1] | EC50 (rZIKV-ZsGreen [2]) | EC90 (rZIKV-ZsGreen [2]) | viral titer reduction (WNV) | viral titer reduction (DENV2) | viral titer reduction (JEV) | Inhibition Efficacy EC50 (rZIKV-ZsGreen [2]) | Inhibition Efficacy EC90 (rZIKV-ZsGreen [2]) | other results
O=C(Nc1ccccc1C(=O)Nc1ccccc1C(=O)O)c1ccccc1 [Benzavir-1, 2-{[2-(benzoylamino)benzoyl]amino}-benzoic acid] | 98.8 ± 3.4% | 88.3 ± 1.4% | 88.1 ± 2.1% | 3 ± 0.1 µM | 3.3 ± 0.1 µM | – | – | – | – | – | –
O=C(Nc1cc(F)c(F)cc1C(=O)Nc1ccccc1C(=O)O)c1ccccc1F [Benzavir-2, 2-[4,5-Difluoro-2-(2-fluorobenzoylamino)-benzoylamino]benzoic acid] | 100 ± 1.8% | 96.8 ± 0.6% | 94.3 ± 1.8% | 0.8 ± 0.1 µM | 1.2 ± 0.3 µM | 2.2 × 10^4 fold | 5.6 × 10^4 fold | 7.5 × 10^3 fold | – | – | CPE in cells infected with progeny virus from treated cells ([3]; day 2 post-progeny virus transfer): minor CPE; plaque formation in cells infected with progeny virus from treated cells ([3]; day 4, crystal violet): only a few visible plaques; reduction of plaque formation [4]: 94%; viral titer reduction (ZIKV [5]; benzavir-2 2.5 µM): 1.0 × 10^3 fold; inhibitory effect, time of addition (rZIKV-ZsGreen [6]; 10 µM added at 2–4 h post-infection, read 24 h): most pronounced; inhibitory effect, time of addition (rZIKV-ZsGreen [6]; 10 µM, binding and entry steps (0–2 h), read 24 h): less affected; inhibitory effect, time of addition (rZIKV-ZsGreen [6]; 10 µM, later time-points post-infection, read 24 h): less inhibition; inhibitory effect, time of addition (rZIKV-ZsGreen [6]; 10 µM, pre-incubation prior to infection (−2 h), compared to 2–4 h): much lower; viral titer reduction (TBEV; benzavir-2 2.5 µM): 7.5 × 10^3 fold; viral titer reduction (YFV; benzavir-2 2.5 µM): 1.5 × 10^3 fold; reduction of plaque formation ([7]; 2.5 µM, Asian lineage): 88%; plaque formation, dose-dependent ([7]; benzavir-2 from 20 to 0.6 µM): significant reduction of plaque formation at all applied concentrations
CC(C)(C)C(=O)Nc1cc(F)c(F)cc1C(=O)Nc1ccccc1C(=O)O [Compound 17d] | 105.1 ± 0.1% | 106 ± 4.2% | 104.9 ± 0.9% | – | – | – | – | – | no antiviral activity; also recorded: Not achieved | Not achieved | –
O=C(Nc1cc(Cl)ccc1C(=O)Nc1ccccc1C(=O)O)c1ccccc1F [Compound 35f] | 105 ± 5% | 96.5 ± 3.7% | 92.1 ± 3.9% | 6.1 ± 1.4 µM | 14.9 ± 0.9 µM | – | – | – | – | – | –
NC(=O)c1nc(F)c[nH]c1=O [Favipiravir, reference compound] | – | – | – | – | – | – | – | – | Not achieved | Not achieved | viability at 24 h, 25 µM ([1]; Vero B4 cells): 97.4 ± 0.7%; viability at 24 h, 50 µM ([1]; Vero B4 cells): 95 ± 1.4%; viability at 24 h, 100 µM ([1]; Vero B4 cells): 97.9 ± 2.2%; Inhibition Efficacy EC50 (rZIKV-ZsGreen [2]; listed as favipiravir): no antiviral activity; EC50 (ZIKV [8]): 111 ± 13.1 µM
NC(=O)c1ncn([C@@H]2O[C@H](CO)[C@@H](O)[C@H]2O)n1 [Ribavirin, reference compound] | – | – | – | 45.5 ± 13.5 µM | 114 ± 18 µM | no significant activity | 1.1 × 10^1 fold | no significant activity | – | – | viral titer reduction (ZIKV [5]; ribavirin 50 µM): 1.0 × 10^1 fold; viability at 24 h, 25 µM (in vitro): 96 ± 1%; viability at 24 h, 50 µM (in vitro): 95 ± 2.8%; viability at 24 h, 100 µM (in vitro): 93.5 ± 3.4%; viral titer reduction (TBEV; ribavirin 50 µM): 1.2 × 10^1 fold; viral titer reduction (YFV; ribavirin 50 µM): 0.9 × 10^1 fold; plaque formation, dose-dependent ([7]; ribavirin from 200 to 6.3 µM): only showed inhibition of plaque formation at 200 µM

Reference: article PMC7150796 (Viruses, 2020)
